tested on: MDA-MB-436; assay: Anti-proliferation assay (ATPLite), Chalice synergy score; format: cell-based; conditions: Compound 1 in combination with second active agent, mean self-cross + 2σ threshold 1.91
Source text: (§1) Cells were thawed from a liquid nitrogen preserved state.
(§2) The calculation for synergy score is provided below.
(§3) If T≧V0:100*[1−(T−V0)/(V−V0)]

SMILES | Synergy score
OCCn1cc(-c2cnc3nnn(Cc4ccc5ncccc5c4)c3n2)cn1 [PF-04217903] | 0.08
Cc1ccc(S(=O)(=O)/C=C/C#N)cc1 [Bay 11-7082] | 1.24
COc1ccc(-c2cc3nccn3c(Nc3ncccc3C(N)=O)n2)cc1OC.Cl [BAY61-3606 Hydrochloride] | 0.94
CCc1cc(Nc2nccc(-c3c(-c4ccc(OC)c(C(=O)Nc5c(F)cccc5F)c4)nc4ccccn34)n2)c(OC)cc1N1CCC(N2CCN(S(C)(=O)=O)CC2)CC1 [GSK1904529A] | 1.22

tested on: HCC-1937; assay: as above; format: cell-based; conditions: Compound 1 in combination with the named second active agent, 72 h, mean of n = 3 experiments in triplicate
Source text: as §1, §2, §3

SMILES | Synergy score
OCCn1cc(-c2cnc3nnn(Cc4ccc5ncccc5c4)c3n2)cn1 [PF-04217903] | 0.44
Cc1ccc(S(=O)(=O)/C=C/C#N)cc1 [Bay 11-7082] | 1.23
COc1ccc(-c2cc3nccn3c(Nc3ncccc3C(N)=O)n2)cc1OC.Cl [BAY61-3606 Hydrochloride] | 0.18
CCc1cc(Nc2nccc(-c3c(-c4ccc(OC)c(C(=O)Nc5c(F)cccc5F)c4)nc4ccccn34)n2)c(OC)cc1N1CCC(N2CCN(S(C)(=O)=O)CC2)CC1 [GSK1904529A] | 1.86

tested on: HCC-1428; assay: as above; format: cell-based; conditions: Compound 1 in combination with the named second active agent, 72 h, mean of n = 3 experiments in triplicate
Source text: as §1, §2, §3

SMILES | Synergy score
OCCn1cc(-c2cnc3nnn(Cc4ccc5ncccc5c4)c3n2)cn1 [PF-04217903] | 0.31
Cc1ccc(S(=O)(=O)/C=C/C#N)cc1 [Bay 11-7082] | 1.53
COc1ccc(-c2cc3nccn3c(Nc3ncccc3C(N)=O)n2)cc1OC.Cl [BAY61-3606 Hydrochloride] | 1.21
CCc1cc(Nc2nccc(-c3c(-c4ccc(OC)c(C(=O)Nc5c(F)cccc5F)c4)nc4ccccn34)n2)c(OC)cc1N1CCC(N2CCN(S(C)(=O)=O)CC2)CC1 [GSK1904529A] | 0.16

tested on: HCC70; assay: as above; format: cell-based; conditions: Compound 1 in combination with second active agent; HCC-70; mean self-cross + 2σ threshold 3.45
Source text: as §1, §2, §3

SMILES | Synergy score
OCCn1cc(-c2cnc3nnn(Cc4ccc5ncccc5c4)c3n2)cn1 [PF-04217903] | 0.33
Cc1ccc(S(=O)(=O)/C=C/C#N)cc1 [Bay 11-7082] | 1.13
COc1ccc(-c2cc3nccn3c(Nc3ncccc3C(N)=O)n2)cc1OC.Cl [BAY61-3606 Hydrochloride] | 3.93
CCc1cc(Nc2nccc(-c3c(-c4ccc(OC)c(C(=O)Nc5c(F)cccc5F)c4)nc4ccccn34)n2)c(OC)cc1N1CCC(N2CCN(S(C)(=O)=O)CC2)CC1 [GSK1904529A] | 2.15

tested on: BT-549; assay: as above; format: cell-based; conditions: Compound 1 in combination with the named second active agent, 72 h, mean of n = 3 experiments in triplicate
Source text: as §1, §2, §3

SMILES | Synergy score
OCCn1cc(-c2cnc3nnn(Cc4ccc5ncccc5c4)c3n2)cn1 [PF-04217903] | 0.04
Cc1ccc(S(=O)(=O)/C=C/C#N)cc1 [Bay 11-7082] | 1.16
COc1ccc(-c2cc3nccn3c(Nc3ncccc3C(N)=O)n2)cc1OC.Cl [BAY61-3606 Hydrochloride] | 2.31
CCc1cc(Nc2nccc(-c3c(-c4ccc(OC)c(C(=O)Nc5c(F)cccc5F)c4)nc4ccccn34)n2)c(OC)cc1N1CCC(N2CCN(S(C)(=O)=O)CC2)CC1 [GSK1904529A] | 0.81

tested on: HCC-1806; assay: as above; format: cell-based; conditions: Compound 1 in combination with the named second active agent, 72 h, mean of n = 3 experiments in triplicate
Source text: as §1, §2, §3

SMILES | Synergy score
OCCn1cc(-c2cnc3nnn(Cc4ccc5ncccc5c4)c3n2)cn1 [PF-04217903] | 0.39
Cc1ccc(S(=O)(=O)/C=C/C#N)cc1 [Bay 11-7082] | 1.01
COc1ccc(-c2cc3nccn3c(Nc3ncccc3C(N)=O)n2)cc1OC.Cl [BAY61-3606 Hydrochloride] | 0.48
CCc1cc(Nc2nccc(-c3c(-c4ccc(OC)c(C(=O)Nc5c(F)cccc5F)c4)nc4ccccn34)n2)c(OC)cc1N1CCC(N2CCN(S(C)(=O)=O)CC2)CC1 [GSK1904529A] | 1.00

tested on: Hs-578-T; assay: as above; format: cell-based; conditions: Compound 1 in combination with second active agent, mean self-cross + 2σ threshold 4.09
Source text: as §1, §2, §3

SMILES | Synergy score
OCCn1cc(-c2cnc3nnn(Cc4ccc5ncccc5c4)c3n2)cn1 [PF-04217903] | 1.12
Cc1ccc(S(=O)(=O)/C=C/C#N)cc1 [Bay 11-7082] | 1.51
COc1ccc(-c2cc3nccn3c(Nc3ncccc3C(N)=O)n2)cc1OC.Cl [BAY61-3606 Hydrochloride] | 5.49
CCc1cc(Nc2nccc(-c3c(-c4ccc(OC)c(C(=O)Nc5c(F)cccc5F)c4)nc4ccccn34)n2)c(OC)cc1N1CCC(N2CCN(S(C)(=O)=O)CC2)CC1 [GSK1904529A] | 0.97

tested on: MDA-MB-157; assay: as above; format: cell-based; conditions: Compound 1 in combination with second active agent, mean self-cross + 2σ threshold 4.68
Source text: as §1, §2, §3

SMILES | Synergy score
OCCn1cc(-c2cnc3nnn(Cc4ccc5ncccc5c4)c3n2)cn1 [PF-04217903] | 0.75
Cc1ccc(S(=O)(=O)/C=C/C#N)cc1 [Bay 11-7082] | 3.65
COc1ccc(-c2cc3nccn3c(Nc3ncccc3C(N)=O)n2)cc1OC.Cl [BAY61-3606 Hydrochloride] | 1.49
CCc1cc(Nc2nccc(-c3c(-c4ccc(OC)c(C(=O)Nc5c(F)cccc5F)c4)nc4ccccn34)n2)c(OC)cc1N1CCC(N2CCN(S(C)(=O)=O)CC2)CC1 [GSK1904529A] | 0.82

tested on: MDA-MB-468; assay: as above; format: cell-based; conditions: Compound 1 in combination with second active agent, mean self-cross + 2σ threshold 4.66
Source text: as §1, §2, §3

SMILES | Synergy score
OCCn1cc(-c2cnc3nnn(Cc4ccc5ncccc5c4)c3n2)cn1 [PF-04217903] | 1.09
Cc1ccc(S(=O)(=O)/C=C/C#N)cc1 [Bay 11-7082] | 1.89
COc1ccc(-c2cc3nccn3c(Nc3ncccc3C(N)=O)n2)cc1OC.Cl [BAY61-3606 Hydrochloride] | 5.47
CCc1cc(Nc2nccc(-c3c(-c4ccc(OC)c(C(=O)Nc5c(F)cccc5F)c4)nc4ccccn34)n2)c(OC)cc1N1CCC(N2CCN(S(C)(=O)=O)CC2)CC1 [GSK1904529A] | 2.44

tested on: MCF7; assay: as above; format: cell-based; conditions: Compound 1 in combination with second active agent, mean self-cross + 2σ threshold 3.07
Source text: as §1, §2, §3

SMILES | Synergy score
OCCn1cc(-c2cnc3nnn(Cc4ccc5ncccc5c4)c3n2)cn1 [PF-04217903] | 0.20
Cc1ccc(S(=O)(=O)/C=C/C#N)cc1 [Bay 11-7082] | 0.02
COc1ccc(-c2cc3nccn3c(Nc3ncccc3C(N)=O)n2)cc1OC.Cl [BAY61-3606 Hydrochloride] | 1.49
CCc1cc(Nc2nccc(-c3c(-c4ccc(OC)c(C(=O)Nc5c(F)cccc5F)c4)nc4ccccn34)n2)c(OC)cc1N1CCC(N2CCN(S(C)(=O)=O)CC2)CC1 [GSK1904529A] | 2.77

tested on: BT-474; assay: as above; format: cell-based; conditions: Compound 1 in combination with the named second active agent, 72 h, mean of n = 3 experiments in triplicate
Source text: as §1, §2, §3

SMILES | Synergy score
OCCn1cc(-c2cnc3nnn(Cc4ccc5ncccc5c4)c3n2)cn1 [PF-04217903] | 0.57
Cc1ccc(S(=O)(=O)/C=C/C#N)cc1 [Bay 11-7082] | 0.93
COc1ccc(-c2cc3nccn3c(Nc3ncccc3C(N)=O)n2)cc1OC.Cl [BAY61-3606 Hydrochloride] | 0.04
CCc1cc(Nc2nccc(-c3c(-c4ccc(OC)c(C(=O)Nc5c(F)cccc5F)c4)nc4ccccn34)n2)c(OC)cc1N1CCC(N2CCN(S(C)(=O)=O)CC2)CC1 [GSK1904529A] | 1.09

tested on: MDA-MB-231; assay: as above; format: cell-based; conditions: Compound 1 in combination with second active agent, mean self-cross + 2σ threshold 2.61
Source text: as §1, §2, §3

SMILES | Synergy score
OCCn1cc(-c2cnc3nnn(Cc4ccc5ncccc5c4)c3n2)cn1 [PF-04217903] | 0.53
Cc1ccc(S(=O)(=O)/C=C/C#N)cc1 [Bay 11-7082] | 0.61
COc1ccc(-c2cc3nccn3c(Nc3ncccc3C(N)=O)n2)cc1OC.Cl [BAY61-3606 Hydrochloride] | 0.79
CCc1cc(Nc2nccc(-c3c(-c4ccc(OC)c(C(=O)Nc5c(F)cccc5F)c4)nc4ccccn34)n2)c(OC)cc1N1CCC(N2CCN(S(C)(=O)=O)CC2)CC1 [GSK1904529A] | 0.09

tested on: BT-20; assay: as above; format: cell-based; parameters: scale not given here; conditions: Compound 1 in combination with the named second active agent, 72 h, mean of n = 3 experiments in triplicate
Source text: as §1, §2, §3

SMILES | Synergy score
OCCn1cc(-c2cnc3nnn(Cc4ccc5ncccc5c4)c3n2)cn1 [PF-04217903] | 0.05
Cc1ccc(S(=O)(=O)/C=C/C#N)cc1 [Bay 11-7082] | 0.00
COc1ccc(-c2cc3nccn3c(Nc3ncccc3C(N)=O)n2)cc1OC.Cl [BAY61-3606 Hydrochloride] | 0.20
CCc1cc(Nc2nccc(-c3c(-c4ccc(OC)c(C(=O)Nc5c(F)cccc5F)c4)nc4ccccn34)n2)c(OC)cc1N1CCC(N2CCN(S(C)(=O)=O)CC2)CC1 [GSK1904529A] | 1.07

tested on: HCC-1187; assay: as above; format: cell-based; parameters: scale not given here; conditions: Compound 1 in combination with the named second active agent, 72 h, mean of n = 3 experiments in triplicate
Source text: as §1, §2, §3

SMILES | Synergy score
OCCn1cc(-c2cnc3nnn(Cc4ccc5ncccc5c4)c3n2)cn1 [PF-04217903] | 0.17
Cc1ccc(S(=O)(=O)/C=C/C#N)cc1 [Bay 11-7082] | 0.51
COc1ccc(-c2cc3nccn3c(Nc3ncccc3C(N)=O)n2)cc1OC.Cl [BAY61-3606 Hydrochloride] | 3.17
CCc1cc(Nc2nccc(-c3c(-c4ccc(OC)c(C(=O)Nc5c(F)cccc5F)c4)nc4ccccn34)n2)c(OC)cc1N1CCC(N2CCN(S(C)(=O)=O)CC2)CC1 [GSK1904529A] | 1.68

tested on: HCC-1500; assay: as above; format: cell-based; parameters: scale not given here; conditions: Compound 1 in combination with the named second active agent, 72 h, mean of n = 3 experiments in triplicate
Source text: as §1, §2, §3

SMILES | Synergy score
OCCn1cc(-c2cnc3nnn(Cc4ccc5ncccc5c4)c3n2)cn1 [PF-04217903] | 0.11
Cc1ccc(S(=O)(=O)/C=C/C#N)cc1 [Bay 11-7082] | 0.52
COc1ccc(-c2cc3nccn3c(Nc3ncccc3C(N)=O)n2)cc1OC.Cl [BAY61-3606 Hydrochloride] | 0.02
CCc1cc(Nc2nccc(-c3c(-c4ccc(OC)c(C(=O)Nc5c(F)cccc5F)c4)nc4ccccn34)n2)c(OC)cc1N1CCC(N2CCN(S(C)(=O)=O)CC2)CC1 [GSK1904529A] | 1.63

Reference: patent publication US9737535B2, “Methods for treating cancer using TOR kinase inhibitor combination therapy comprising administering substituted pyrazino[2,3-b]pyrazines” (Signal Pharmaceuticals, LLC, priority 2014, dated 2017)
